We go through 1 molecule from paper PMC8315060, “N-terminus-independent activation of c-Src via binding to a tetraspan(in) TM4SF5 in hepatocellular carcinoma is abolished by the TM4SF5 C-terminal peptide application” (Theranostics, 2021).

Format in all cases: cell-based
One test addresses T1, TM4SF5 binding to c-Src (Homo sapiens, UniProt O14894).
T1 construct: TM4SF5WT (NM-003963, 197 amino acids); expressed in transfected cells
T1 sequence (O14894 1-197): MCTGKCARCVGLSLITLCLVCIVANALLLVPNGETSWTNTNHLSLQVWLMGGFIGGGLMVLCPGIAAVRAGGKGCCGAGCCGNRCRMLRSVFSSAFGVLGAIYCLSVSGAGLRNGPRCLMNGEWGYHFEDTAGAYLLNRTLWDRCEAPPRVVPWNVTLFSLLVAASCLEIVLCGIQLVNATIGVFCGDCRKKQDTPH
Put plainly: TM4SF5 binding to c-Src after TSAHC treatment. To be noted: treatment of TSAHC, stated in the discussion. An excerpt: (A and B) SNU449 cells transiently transfected with the c-Src SH321 construct together with the indicated constructs were harvested (A). SNU761 cells stably expressing mock or FLAG-TM4SF5 were transiently transfected with the indicated constructs were harvested (B). The whole cell lysates (WCL) were precipitated with streptavidin beads, prior to immunoblotting. (C) SNU761 cells stably expressing mock or FLAG-TM4SF5WT (WT) were transiently transfected with the indicated construct and siRNAs against a scrambled sequence (siCont) or a sequence in PTP1B (siPTP1B). Immunoprecipitation from the WCL using anti-Flag-precoated sepharose beads was performed, before immunoblots. (D) SNU449 cells transfected with the indicated plasmids were processed for precipitation using streptavidin beads, prior to immunoblotting. (E) Stable SNU449 cells were treated with DMSO (-) or TSAHC (20 μM, +) for 24 h, before harvest, precipitation using streptavidin beads, and immunoblotting. Another cell set with TM4SF5-Flag and treated with DMSO or TSAHC as above was processed for immunofluorescence analysis. (F) SNU761 cells stably expressing TM4SF5WT were transiently transfected with the indicated siRNAs for 48 h, prior to transwell migration assay. […] Quantitative comparison ratios were calculated from the blots by measurement of band intensities using Image J and normalization of them to those of loading controls. […]

The target of a further test is T2, TM4SF5 (Homo sapiens, UniProt O14894).
T2 construct: TM4SF5WT (NM-003963, 197 amino acids); expressed in transfected cells
T2 sequence (O14894 1-197): T1 sequence (O14894 1-197)
Put plainly: Immunofluorescence of TM4SF5 localization after TSAHC. Conditions: TM4SF5-Flag cells, TSAHC 20 μM for 24 h, Figure 3E. The procedure: Indirect immunofluorescence: Cells maintained under normal culture conditions on glass coverslips were treated with peptides for 1 day in the absence or presence of 10 μM TSAHC, a specific TM4SF5 inhibitor [29]. The cells were incubated with either PBS (non-permeabilized) or 0.5% Triton X-100 in PBS (permeabilized) for 5 min at RT and then stained using an antibody against TAT (1:100 dilution, Cell Applications, Inc., San Diego, CA, USA). Cells treated with the CPPs were also fixed with 4% formaldehyde for 10 min at RT, incubated with 30 mM glycine for 30 min, permeabilized as described above, and then stained with antibodies against pY397FAK (Cat #: 611723, BD Transduction Laboratories, 1:500 dilution) or pY861FAK (sc-16663-R, Santa Cruz Biotechnology, 1:500 dilution). Phalloidin was also used to stain for F-actin. Immunofluorescent images were acquired on a confocal (Nikon eclipse Ti; Nikon, Melville, NY, USA) or a fluorescent microscope (BX51, Olympus, Japan).
(A and B) SNU449 cells transiently transfected with the c-Src SH321 construct together with the indicated constructs were harvested (A). […] Quantitative comparison ratios were calculated from the blots by measurement of band intensities using Image J and normalization of them to those of loading controls. […]

Another test deals with T3, PTP1B binding to TM4SF5 (Homo sapiens, UniProt O14894).
T3 construct: TM4SF5WT (NM-003963, 197 amino acids); expressed in transfected cells; host or cells: SNU449 cells stably expressing STrEP-TM4SF5
T3 sequence (O14894 1-197): T1 sequence (O14894 1-197)
Put plainly: Streptavidin pull-down of STrEP-TM4SF5 and immunoblot for PTP1B after TSAHC. To be noted: stable SNU449 cells, TSAHC 20 μM for 24 h, immunoblot, Figure 3E. An excerpt:
Co-immunoprecipitation: Whole cell extracts were precipitated with anti-FLAG antibody (Cell Signaling Technology) or […]-precoated beads (Sigma-Aldrich) in a cold room overnight prior to immunoblotting with the indicated antibodies. For co-immunoprecipitation of endogenous proteins, whole cell lysates of endogenous TM4SF5-expressing HepG2 cells were precipitated with either anti-TM4SF5 [27] or c-Src (sc-8056, clone H-12) antibody prior to immunoblotting for FAK, c-Src, and TM4SF5. Immunoprecipitated proteins were boiled in 2× SDS-PAGE sample buffer before undergoing western blotting using standard protocols. Quantification of band intensity was performed as described above.
(A and B) SNU449 cells transiently transfected with the c-Src SH321 construct together with the indicated constructs were harvested (A). SNU761 cells stably expressing mock or FLAG-TM4SF5 were transiently transfected with the indicated constructs were harvested (B). The whole cell lysates (WCL) were precipitated with streptavidin beads, prior to immunoblotting. […] Quantitative comparison ratios were calculated from the blots by measurement of band intensities using Image J and normalization of them to those of loading controls. […]
(In general: In western blotting, separated proteins are transferred to a membrane and probed.)

Structures are written as SMILES.

Consider `Cc1ccc(S(=O)(=O)Nc2ccc(C(=O)C=Cc3ccc(O)cc3)cc2)cc1` [TSAHC, 4-(p-toluenesulfonylamido)-4-hydroxychalcone], for which the “TM4SF5 binding to c-Src” value at TM4SF5 binding to c-Src is recorded as “impaired TM4SF5 binding to c-Src”. Moreover, at TM4SF5, the “membrane localization of TM4SF5” value is reported as “still showed membrane localization of TM4SF5”. Further, the “PTP1B binding to TM4SF5” value at PTP1B binding to TM4SF5 is listed as “reduced substantially”.
